Results published in article PMC10700596 (Nature Communications, 2023).

Key:
[1] = molecular target: T1, EP4R (Homo sapiens, UniProt P35408); assay: biochemical; type: binding; conditions: […], read-out: % displacement of 3HPGE2 at 10 µM, 10 µM compound vs 10 nM 3H-PGE2
T1 construct: Tango fusion cassette (only 'tango' is printed); expressed in transfected cells; host or cells: HTLA cells (tTA-dependent luciferase reporter, β-arrestin2-TEV fusion)

[2] = molecular target: T1, EP4R; assay: PRESTO-Tango β-arrestin2 recruitment assay; type: cell-based; conditions: for Ki: PRESTO-Tango Ki* (nM)
[3] = PRESTO-Tango IC50 (nM), antagonist mode, EC80 of PGE2
[4] = PRESTO-Tango -logIC50, antagonist mode, EC80 of PGE2
[5] = calculated using the Cheng Prusoff equation

T1 sequence (P35408 whole entry, the tested form may be a part): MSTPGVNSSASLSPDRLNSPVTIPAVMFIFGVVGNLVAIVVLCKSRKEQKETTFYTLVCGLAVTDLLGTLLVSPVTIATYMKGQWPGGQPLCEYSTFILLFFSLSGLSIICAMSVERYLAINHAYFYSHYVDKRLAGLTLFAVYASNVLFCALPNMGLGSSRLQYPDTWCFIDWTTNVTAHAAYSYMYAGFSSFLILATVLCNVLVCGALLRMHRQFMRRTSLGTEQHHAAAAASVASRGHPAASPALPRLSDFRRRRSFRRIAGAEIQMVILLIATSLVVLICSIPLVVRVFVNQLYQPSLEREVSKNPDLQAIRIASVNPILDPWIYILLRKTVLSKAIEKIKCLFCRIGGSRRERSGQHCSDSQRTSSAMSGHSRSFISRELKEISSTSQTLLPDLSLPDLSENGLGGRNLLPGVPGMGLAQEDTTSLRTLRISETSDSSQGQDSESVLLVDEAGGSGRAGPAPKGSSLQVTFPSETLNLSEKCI

O=C(O)C1(n2cc(Cc3ccc(F)cc3F)cn2)CCC(c2ccccc2)CC1 (stereo not drawn) [Compound 1, OC(=O)C1(CCC(CC1)C=2C=CC=CC2)N3C=C(CC=4C=CC(F)=CC4F)C=N3]
inhibition at 10 µM [1]: -28.7%

CCc1ncc(CN(CC(=O)O)C(=O)OCc2cccnc2)s1 [Compound 2, CCC1=NC=C(CN(CC(=O)O)C(=O)OCC=2C=CC=NC2)S1]
inhibition at 10 µM [1]: -23.1%

CC1CC(C(=O)O)CN(C(=O)C2(c3cccc(C(F)(F)F)c3)CC2)C1 (stereo not drawn) [Compound 3, CC1CC(CN(C1)C(=O)C2(CC2)C=3C=CC=C(C3)C(F)(F)F)C(=O)O]
inhibition at 10 µM [1]: -22.5%

O=C(NC1CC(C(=O)O)C1)N[C@@H]1CCC[C@@H]1n1cccn1 (stereo partly drawn) [Compound 4, OC(=O)C1CC(C1)NC(=O)N[C@@H]2CCC[C@@H]2N3C=CC=N3]
inhibition at 10 µM [1]: -21.9%

O=C(O)CCc1cccc(NC(=O)c2c(C(F)(F)F)nc3n2CCCC3)c1 [Compound 5, OC(=O)CCC=1C=CC=C(NC(=O)C2=C(N=C3CCCCN23)C(F)(F)F)C1]
inhibition at 10 µM [1]: -19%

NC(=O)c1cc(C(=O)Nc2ccc(CC(=O)O)cc2)nn1-c1ccccc1 [Compound 6, NC(=O)C1=CC(=NN1C=2C=CC=CC2)C(=O)NC=3C=CC(CC(=O)O)=CC3]
inhibition at 10 µM [1]: -18.8%

CC1(COC(=O)c2ccc(NS(C)(=O)=O)nc2)CC1(F)Cl (stereo not drawn) [Compound 7, CC1(COC(=O)C=2C=CC(NS(=O)(=O)C)=NC2)CC1(F)Cl]
inhibition at 10 µM [1]: -18.4%

CN(c1nc2cccc(F)c2s1)[C@H]1C[C@@H](C(=O)O)C1 [Compound 8, CN([C@H]1C[C@H](C1)C(=O)O)C2=NC=3C=CC=C(F)C3S2]
inhibition at 10 µM [1]: -18.4%

CC(CN(C)c1nc(C(F)(F)F)cs1)C(=O)O (stereo not drawn) [Compound 9, CC(CN(C)C1=NC(=CS1)C(F)(F)F)C(=O)O]
inhibition at 10 µM [1]: -18.1%

CN(c1ncnc2[nH]c3ccccc3c12)C1CC2(CCC(C(=O)O)CC2)C1 (stereo not drawn) [Compound 76, CN(C1CC2(C1)CCC(CC2)C(=O)O)C=3N=CN=C4NC=5C=CC=CC5C34]
IC50 ([2]; PRESTO-Tango IC50 (nM)): 1170 nM
Ki [2]: 234 nM

Cc1cc(C(=O)NC2CCCC(C(=O)O)CC2)c(C)n1-c1ccccc1 (stereo not drawn) [Compound 78, CC1=CC(C(=O)NC2CCCC(CC2)C(=O)O)=C(C)N1C=3C=CC=CC3]
IC50 [2, 3]: 7080 nM
Ki [2]: 1420 nM

O=C(O)C1CCC2(CC1)CC(Nc1ncnc3c1oc1ccccc13)C2 (stereo not drawn) [Compound 84, OC(=O)C1CCC2(CC(C2)NC=3N=CN=C4C=5C=CC=CC5OC34)CC1]
IC50 [2, 3]: 5730 nM
Ki [2]: 1150 nM

O=C(O)C1CCC2(CC1)CC(Nc1ncnc3sc(-c4ccccc4)cc13)C2 (stereo not drawn) [Compound 85, OC(=O)C1CCC2(CC(C2)NC=3N=CN=C4SC(=CC34)C=5C=CC=CC5)CC1]
IC50 [2, 4]: 776000 nM
IC50 [2, 3]: > 10000 nM

Cc1csc2ncnc(NC3CC4(CCC(C(=O)O)CC4)C3)c12 (stereo not drawn) [Compound 86, CC1=CSC=2N=CN=C(NC3CC4(C3)CCC(CC4)C(=O)O)C12]
IC50 [2, 3]: 7960 nM
Ki [2, 5]: 1590 nM

CC(C)c1ccc2ncnc(NC3CC4(CCC(C(=O)O)CC4)C3)c2c1 (stereo not drawn) [Compound 87, CC(C)C=1C=CC=2N=CN=C(NC3CC4(C3)CCC(CC4)C(=O)O)C2C1]
IC50 [2, 4]: 19500 nM
IC50 [2, 3]: > 10000 nM

Cc1cc2c(NC3CC4(CCC(C(=O)O)CC4)C3)ncnc2s1 (stereo not drawn) [Compound 88, CC1=CC=2C(NC3CC4(C3)CCC(CC4)C(=O)O)=NC=NC2S1]
IC50 ([2]; PRESTO-Tango -logIC50): 708000 nM
IC50 ([2]; PRESTO-Tango IC50 (nM)): > 10000 nM

O=C(O)C1CCC2(CC1)CC(Nc1nc(C(F)(F)F)nc3ccccc13)C2 (stereo not drawn) [Compound 90, OC(=O)C1CCC2(CC(C2)NC=3N=C(N=C4C=CC=CC34)C(F)(F)F)CC1]
IC50 [2, 3]: 3870 nM
Ki [2, 5]: 774 nM

O=C(O)C1CCC2(CC1)CC(Nc1ncnc3sc4c(c13)CCC4)C2 (stereo not drawn) [Compound 91, OC(=O)C1CCC2(CC(C2)NC=3N=CN=C4SC=5CCCC5C34)CC1]
IC50 [2, 3]: 4030 nM
Ki [2]: 807 nM

CC1CCc2c(sc3ncnc(NC4CC5(CCC(C(=O)O)CC5)C4)c23)C1 (stereo not drawn) [Compound 92, CC1CCC2=C(C1)SC=3N=CN=C(NC4CC5(C4)CCC(CC5)C(=O)O)C23]
IC50 [2, 3]: 806 nM
Ki [2, 5]: 161 nM

Cc1nc(NC2CC3(CCC(C(=O)O)CC3)C2)c2cc(-c3ccccc3)sc2n1 (stereo not drawn) [Compound 93, CC=1N=C(NC2CC3(C2)CCC(CC3)C(=O)O)C=4C=C(SC4N1)C=5C=CC=CC5]
IC50 [2, 3]: 7350 nM
Ki [2, 5]: 1470 nM

Cc1nc2ncnn2c(NC2CC3(CCC(C(=O)O)CC3)C2)c1C (stereo not drawn) [Compound 94, CC1=NC2=NC=NN2C(NC3CC4(C3)CCC(CC4)C(=O)O)=C1C]
IC50 ([2]; PRESTO-Tango -logIC50): 12000 nM
IC50 ([2]; PRESTO-Tango IC50 (nM)): > 10000 nM

O=C(NC1CCCC(C(=O)O)CC1)c1nn(-c2ccccc2)c2c1CCC2 (stereo not drawn) [Compound 98, OC(=O)C1CCCC(CC1)NC(=O)C2=NN(C=3CCCC23)C=4C=CC=CC4]
IC50 [2, 3]: 2060 nM
Ki [2, 5]: 411 nM

O=C(O)C[C@@H]1CC[C@H](NC(=O)c2csc(C3CCCCC3)c2)C1 [Compound 100, OC(=O)C[C@@H]1CC[C@@H](C1)NC(=O)C2=CSC(=C2)C3CCCCC3]
IC50 [2, 4]: 1820 nM
IC50 [2, 3]: 1880 nM
Ki [2]: 376 nM

O=C(NC1CCCC(C(=O)O)CC1)c1csc(C2CCCCC2)n1 (stereo not drawn) [Compound 106, OC(=O)C1CCCC(CC1)NC(=O)C2=CSC(=N2)C3CCCCC3]
IC50 [2, 4]: 23400 nM
IC50 [2, 3]: > 10000 nM

O=C(NC1CCCC(C(=O)O)CC1)c1csc(Cc2ccccc2)c1 (stereo not drawn) [Compound 107, OC(=O)C1CCCC(CC1)NC(=O)C2=CSC(CC=3C=CC=CC3)=C2]
IC50 [2, 4]: 22900 nM
IC50 [2, 3]: > 10000 nM

Cc1sc(C(=O)NC2CCCC(C(=O)O)CC2)cc1-c1ccc(F)cc1 (stereo not drawn) [Compound 108, CC=1SC(=CC1C=2C=CC(F)=CC2)C(=O)NC3CCCC(CC3)C(=O)O]
IC50 [2, 4]: 501000 nM
IC50 [2, 3]: > 10000 nM

O=C(NC1CC2(CCC(C(=O)O)CC2)C1)c1csc(C2CCCCC2)c1 (stereo not drawn) [Compound 109, OC(=O)C1CCC2(CC(C2)NC(=O)C3=CSC(=C3)C4CCCCC4)CC1]
IC50 [2, 4]: 10200 nM
IC50 [2, 3]: > 10000 nM

Cc1cc(C(=O)N[C@@H]2CC[C@@H](C(=O)O)CCC2(F)F)c(C)n1-c1ccccc1F [Compound 113, CC1=CC(C(=O)N[C@@H]2CC[C@H](CCC2(F)F)C(=O)O)=C(C)N1C=3C=CC=CC3F]
IC50 ([2]; PRESTO-Tango -logIC50): 11000 nM
IC50 ([2]; PRESTO-Tango IC50 (nM)): > 10000 nM

O=C(NC1CCCC(C(=O)O)CC1)c1nn(-c2ccc(F)cc2)c2c1CCC2 (stereo not drawn) [Compound 116, OC(=O)C1CCCC(CC1)NC(=O)C2=NN(C=3CCCC23)C=4C=CC(F)=CC4]
IC50 [2, 4]: 17400 nM
IC50 [2, 3]: > 10000 nM

COc1cccc(-n2c(C)cc(C(=O)NC3CCCC(C(=O)O)CC3)c2C)c1 (stereo not drawn) [Compound 117, COC=1C=CC=C(C1)N2C(C)=CC(C(=O)NC3CCCC(CC3)C(=O)O)=C2C]
IC50 [2, 4]: 22900 nM
IC50 [2, 3]: > 10000 nM

O=C(N[C@@H]1CC[C@@H](C(=O)O)CCC1(F)F)c1nn(-c2ccccc2F)c2c1CCC2 [Compound 118, OC(=O)[C@@H]1CC[C@@H](NC(=O)C2=NN(C=3CCCC23)C=4C=CC=CC4F)C(F)(F)CC1]
IC50 [2, 3]: 3790 nM
Ki [2]: 757 nM

Cc1cc(C(=O)NC2CCCC(C(=O)O)CC2)c(C)n1-c1ccc(F)cc1 (stereo not drawn) [Compound 119, CC1=CC(C(=O)NC2CCCC(CC2)C(=O)O)=C(C)N1C=3C=CC(F)=CC3]
IC50 [2, 4]: 25900 nM
IC50 [2, 3]: > 10000 nM

O=C(N[C@@H]1CC[C@@H](C(=O)O)CCC1(F)F)c1nn(-c2cccc(F)c2)c2c1CCC2 [Compound 121, OC(=O)[C@@H]1CC[C@@H](NC(=O)C2=NN(C=3CCCC23)C=4C=CC=C(F)C4)C(F)(F)CC1]
IC50 [2, 4]: 1000 nM
IC50 [2, 3]: 1010 nM
Ki [2, 5]: 202 nM

Cc1cc(C(=O)NC2CCCC(C(=O)O)CC2)c(C)n1-c1ccc(C(C)C)cc1 (stereo not drawn) [Compound 122, CC(C)C=1C=CC(=CC1)N2C(C)=CC(C(=O)NC3CCCC(CC3)C(=O)O)=C2C]
IC50 [2, 3]: 1150 nM
Ki [2, 5]: 229 nM

O=C(NC1CCCC(C(=O)O)CC1)c1nn(-c2cccc(F)c2)c2c1CCC2 (stereo not drawn) [Compound 123, OC(=O)C1CCCC(CC1)NC(=O)C2=NN(C=3CCCC23)C=4C=CC=C(F)C4]
IC50 ([2]; PRESTO-Tango IC50 (nM)): 1470 nM
Ki [2, 5]: 293 nM

COc1ccc(-n2c(C)cc(C(=O)NC3CCCC(C(=O)O)CC3)c2C)cc1 (stereo not drawn) [Compound 124, COC=1C=CC(=CC1)N2C(C)=CC(C(=O)NC3CCCC(CC3)C(=O)O)=C2C]
IC50 [2, 4]: 53700 nM
IC50 [2, 3]: > 10000 nM

O=C(N[C@@H]1CC[C@@H](C(=O)O)CCC1(F)F)c1nn(-c2ccccc2)c2c1CCC2 [Compound 125, OC(=O)[C@@H]1CC[C@@H](NC(=O)C2=NN(C=3CCCC23)C=4C=CC=CC4)C(F)(F)CC1]
IC50 [2, 3]: 1640 nM
Ki [2, 5]: 328 nM

Cc1cc(C(=O)NC2CCCC(C(=O)O)CC2)c(C)n1-c1cccc(F)c1 (stereo not drawn) [Compound 126, CC1=CC(C(=O)NC2CCCC(CC2)C(=O)O)=C(C)N1C=3C=CC=C(F)C3]
PRESTO-Tango -logIC50 [2]: unstable
IC50 ([2]; PRESTO-Tango IC50 (nM)): > 10000 nM

O=C(N[C@@H]1CC[C@@H](C(=O)O)CCC1(F)F)c1nn(-c2ccc(F)cc2)c2c1CCC2 [Compound 127, OC(=O)[C@@H]1CC[C@@H](NC(=O)C2=NN(C=3CCCC23)C=4C=CC(F)=CC4)C(F)(F)CC1]
IC50 [2, 3]: 2170 nM
Ki [2, 5]: 434 nM

Cc1cc(C(=O)N[C@@H]2CC[C@@H](C(=O)O)CCC2(F)F)c(C)n1-c1cccc(F)c1 [Compound 128, CC1=CC(C(=O)N[C@@H]2CC[C@H](CCC2(F)F)C(=O)O)=C(C)N1C=3C=CC=C(F)C3]
IC50 [2, 4]: 18200 nM
IC50 [2, 3]: > 10000 nM

Cc1cc(C(=O)NC2CCCC(C(=O)O)CC2)c(C)n1-c1ccccc1F (stereo not drawn) [Compound 129, CC1=CC(C(=O)NC2CCCC(CC2)C(=O)O)=C(C)N1C=3C=CC=CC3F]
IC50 [2, 4]: 479000 nM
IC50 [2, 3]: > 10000 nM

CN(C(=O)c1nn(-c2ccccc2)c2c1CCC2)C1CCCC(C(=O)O)CC1 (stereo not drawn) [Compound 131, CN(C1CCCC(CC1)C(=O)O)C(=O)C2=NN(C=3CCCC23)C=4C=CC=CC4]
IC50 [2, 3]: 1880 nM
Ki [2]: 376 nM

Cc1cc(C(=O)N(C)C2CCCC(C(=O)O)CC2)c(C)n1-c1ccccc1 (stereo not drawn) [Compound 132, CN(C1CCCC(CC1)C(=O)O)C(=O)C=2C=C(C)N(C2C)C=3C=CC=CC3]
IC50 [2, 4]: 23400 nM
IC50 [2, 3]: > 10000 nM

O=C(O)C1CCC2(CC1)CC(Nc1ncnc3[nH]c4ncccc4c13)C2 (stereo not drawn) [Compound 133, OC(=O)C1CCC2(CC(C2)NC=3N=CN=C4NC=5N=CC=CC5C34)CC1]
IC50 [2, 3]: 1090 nM
Ki [2, 5]: 218 nM
